US10921325B2, “Composition for anticancer adjuvant comprising RIP3 expression promoter as active ingredient, method for screening anticancer adjuvant which promotes RIP3 expression and enhances sensitivity of anticancer agent, and method for monitoring sensitivity of anticancer agent” (AJOU UNIVERSITY INDUSTRY-ACADEMIC COOPERATION FOUNDATION, priority 2015, dated 2021)

Legend:
[1] = tested on: HeLa, MDA-MB231 and DLD-1 cancer cell lines; test: Sensitization to cancer cell death by combined treatment with demethylating agent and anticancer drug; type: cell-based
Protocol: (§1) Cell viability was determined using tetrazolium dye colorimetric test (MTT assay) at 570 nm.
The same number of HeLa, MDA-MB231 and DLD-1 cancer cell lines not treated with a drug were also grown, and then treated with the same concentration of an anticancer drug. The effect of the demethylating agent on sensitization to cell death was analyzed.

[2] = tested on: non-target cell line and shRIP3 cell line; test: Cell viability (MTT) of non-target and shRIP3 cell lines after combined treatment with demethylating agent and anticancer drug; type: cell-based, human
Protocol: (§2) A MISSION short-hairpin RNA (shRNA) plasmid that targets the coding region or 3′ UTR of hRIP3 mRNA (NM_006871) or a non-target control sequence (NM-027088) were obtained from Sigma-Aldrich. A Lentivirus plasmid was transfected into 293T cells (System Biosciences, LV900A-1) using Lipofectamine 2000 (Invitrogen, 11668019). Pseudoviral particles were collected at 2 days after transfection of the Lentivirus plasmid and infected into various cancer cells in the presence of polybrene (10 μg/mL).
as §1
(§3) Since a demethylating agent (5-AD or 5-AZA) is not a drug specific for a particular protein, it may cause expression of various proteins in addition to RIP3. […] After whether RIP3 was expressed was determined, a cell viability assay was performed.

T47D cells = test: Viability (MTT) of RIP3-silenced T47D cells treated with anticancer drug; type: cell-based, human; details: 48 hours; for anticancer drug resistance (MTT assay): T47D RIP3-knocked down test group, versus control group; for cell death (MTT assay): T47D control group
Protocol: The T47D cell line which is a breast cancer cell line expressing RIP3 was used to identify the role of RIP3 in various kinds of cancel. First, the shRIP3 T47D cell line was prepared in the same manner as described in Example 7.
In order to examine whether RIP3 increases anticancer drug sensitivity in T47D breast cancer cells, an MTT assay was performed. A control group and a RIP3-knocked down test group were incubated with doxorubicin, etoposide and taxol at the concentrations shown in FIG. 15 (right) for 48 hours.

[3] = tested on: MDA-MB231 breast cancer cell line tumors; test: MDA-MB231 mouse xenograft model, combined treatment with 5-AD and Doxorubicin; type: in vivo, BALB/c nude mice
Protocol: In order to verify the sensitization effect induced by RIP3 expression in experimental animal models, the MDA-MB231 breast cancer cell line that expresses no RIP3 was injected into BALB/c nude mice to form tumors. Next, the mice were injected with 5-AD for 1 week, and then injected with Doxorubicin for 33 days, and a change in the volume of the tumor tissue was measured. […] In addition, the tumor tissue was isolated after the last drug treatment, and the mass thereof was measured. […] The tumor tissue subjected to combined treatment with 5-AD and Doxorubicin was prepared into a paraffin block which was then visualized by H&E staining, p-H2AX antibody staining, and TUNEL staining.

[4] = tested on: RIP3 expression in MDA-MB231 tumor tissue; test: RIP3 expression in isolated xenograft tumor tissue (RT-PCR, IHC); type: in vivo, BALB/c nude mice; details: group treated with 5-AD
Protocol: Immunohistochemistry was performed using the UltraVision LP Detection System TL-060-HD (Thermo Scientific, Bioanalytica) according to the manufactures instructions. Thin paraffin sections (4.5 μm) were deparaffinized in xylene and rehydrated in a graded series of ethanol-aqueous solutions. Antigen retrieval was done by heating the slides for 15 min in a microwave oven in 10 mM citrate buffer (pH 6.0). Endogenous peroxidase activity was blocked by incubation in 3% hydrogen peroxide in TBS for 10 min, and then the sections were incubated overnight at 4° C. in 1:300 dilutions of anti-RIP3 antibody. Chromogen was developed for 5 min with 3,3′-diaminobenzidine (TL-015-HD, Them© Scientific, Bioanalytica, Greece) solution and counterstained with Meyer's hematoxylin. Immunohistochemical staining was evaluated based on the proportion of stained cells and immunostaining intensity. H-score used in the present invention was obtained by multiplying the proportion of stained cells (i) and staining intensity graded 0 (negative), 1 (weak), 2 (moderate), or 3 (strong). H-score ranged from 0 to 300. Staining was carried out for tumor and normal tissues for each sample for the same time. Staining was interpreted by an experienced pathologist blinded to the clinical data.
In addition, RNA was extracted from the isolated tumor tissue and subjected to RT-PCR. […]

[5] = tested on: RIP3 expression in RIP3-silenced cancer cell lines; test: RIP3 expression in RIP3-silenced cancer cell lines treated with demethylating agent (Western blotting)
Protocol: Cells were lysed in M2 buffer. Equal amounts of cell extracts were analyzed by SDS-PAGE and immunoblotting, and visualized by enhanced chemiluminescence (ECL, Amersham). A variety of RIP3-silenced cancer cell lines (including liver cancer, cervical cancer, prostate cancer, brain cancer, ovarian cancer, skin cancer, lung cancer, breast cancer, blood cancer, colorectal cancer, and bladder cancer) were grown to a confluence of 10-20%, and then treated twice with 5-AD for 4 days, after which RIP3 expression patterns in the cell lines were analyzed by a Western blotting technique.

[6] = tested on: RIP3 expression in non-target and shRIP3 cancer cell lines; test: RIP3 expression in non-target and shRIP3 cell lines treated with 5-AD (Western blotting); type: cell-based, human; details: treated twice with 5-AD for 4 days
Protocol: as §2, with “μg/mL). At 2 days after infection, infected cells were selected with puromycin, and RIP3 knockdown was confirmed by immunoblotting. Cells without expression endogenous RIP3 were afterwards treated with 5-AD for 4 days and analyzed by immunoblotting.” for “μg/mL).”
Cells were lysed in M2 buffer.
as §3

[7] = tested on: RIP3 expression in HeLa cervical cell line and DLD-1 colorectal cancer cell line; test: RIP3 expression at mRNA or protein level in HeLa and DLD-1 cells treated with demethylating agent; type: cell-based; details: HeLa and DLD-1 cell lines which expressed no RIP3
HT-29 cells = test: Viability (MTT) of RIP3-silenced HT-29 cells treated with anticancer drug; type: cell-based, human; details: 48 hours
Protocol: In order to identify the role of RIP3 in anticancer drug sensitivity, the HT-29 cell line which is a representative cancer cell line expressing RIP3 was used. To identity the function of RIP3, RIP3 expression was inhibited using the shRNA system and analyzed by a Western blotting technique.
In the present invention, in order to examine whether the RIP3 gene is associated with anticancer drug sensitivity, HT-29 cells transfected with RIP3 shRNA were treated with varying concentrations of doxorubicin and etoposide, and then the cell viability of the cancer cells was measured. Particularly, HT-29 cells transfected with RIP3 shRNA were treated with 2.5 μM and 5 μM of doxorubicin and 50 μM and 100 μM of etoposide, and then incubated for 48 hours. After the medium was replaced with a fresh medium containing 0.1 mg of MTT (3-([4,5-dimethylthiazol-2-yl]-2,5-diphenyltetrazolium bromide), the cells were further incubated for 2 hours. Colorimetric analysis was performed on a precipitate obtained by reducing a tetrazolium salt, in which viable cells is dissolved, into a purple formazan crystal. Next, the medium was removed, and the produced formazan crystal was dissolved in 500 μl of DMSO, and the absorbance was measured using an ELISA reader at 570 nm. Cell viability was expressed as a percentage relative to the control taken as 100% viability.

[8] = anticancer drug in combined treatment with the demethylating agent (5-AD or 5-AZA)
[9] = non-target cell line, anticancer drug combined with demethylating agent (5-AD)
[10] = HT-29 control group, doxorubicin 2.5 and 5 μM, etoposide 50 and 100 μM
[11] = HT-29 with RIP3 knocked down with shRNA, versus control group

Row | Compound | sensitization to cell death [1, 8] | sensitization to cell death [2, 9] | anticancer drug resistance (MTT assay) (T47D cells) | cell death (MTT assay) (T47D cells) | further results
1 | N.N.[Cl][Pt][Cl] [Cisplatin, cisplatin] | showed the effect of sensitizing the cancer cell lines to cell death | showed the effect of sensitizing the cancer cell line to cell line |  |  | 
2 | CC(=O)O[C@H]1C(=O)[C@@]2(C)[C@H]([C@H](OC(=O)c3ccccc3)[C@]3(O)C[C@H](OC(=O)[C@H](O)[C@@H](NC(=O)c4ccccc4)c4ccccc4)C(C)=C1C3(C)C)[C@]1(OC(C)=O)CO[C@@H]1C[C@@H]2O [Paclitaxel, paclitaxel] | showed the effect of sensitizing the cancer cell lines to cell death |  | significantly increased compared to that of the control group | killed depending on the concentration | 
3 | Nc1ncn([C@H]2C[C@H](O)[C@@H](CO)O2)c(=O)n1 [5-AD, 5-aza-2′-deoxycytidine] |  |  |  |  | volume of the tumor tissue ([3]; 5-AD for 1 week then Doxorubicin for 33 days, combined treatment compared to Doxorubicin alone): significantly reduced; H&E staining, p-H2AX antibody staining and TUNEL staining of tumor tissue ([3]; combined treatment with 5-AD and Doxorubicin): the death of the cancer cells occurred by the combined treatment; mass of tumor tissue ([3]; tumor isolated after the last drug treatment, combined treatment with Doxorubicin and 5-AD): significantly reduced; RIP3 expression (RT-PCR) ([4]; RNA from isolated tumor tissue): increased; RIP3 expression (immunohistochemistry) ([4]; paraffin block of isolated tumor tissue): RIP3 expression was increased; sensitization to cell death ([1]; cervical, breast, colorectal and bladder cancer cell lines treated with the anticancer drug after RIP3 induction by 5-AD): sensitized to cell death; sensitization to cell death ([2]; shRIP3 cell line that expresses no RIP3, 5-AD combined with anticancer drug): the sensitization effect was inhibited; RIP3 expression ([5]; cancer cell lines that expressed no RIP3, 5-AD 2 uM, treated twice for 4 days, Western blotting): RIP3 expression was induced; RIP3 expression ([6]; non-target cell line): RIP3 expression was induced; RIP3 expression ([6]; shRIP3 cell line, Western blotting): RIP3 was not expressed
4 | Nc1ncn([C@@H]2O[C@H](CO)[C@@H](O)[C@H]2O)c(=O)n1 [5-AZA, 5-azacytidine] |  |  |  |  | RIP3 expression ([5]; cancer cell lines of Example 3, treated twice for 4 days): induced RIP3 expression; RIP3 expression [7]: RIP3 expression was induced
5 | CC[C@@]1(O)C(=O)OCc2c1cc1n(c2=O)Cc2cc3ccccc3nc2-1 [CPT] | showed the effect of sensitizing the cancer cell lines to cell death | showed the effect of sensitizing the cancer cell line to cell line |  |  | 
6 | O=c1[nH]cc(F)c(=O)[nH]1 [5-FU] | showed the effect of sensitizing the cancer cell lines to cell death | showed the effect of sensitizing the cancer cell line to cell line |  |  | 
7 | COc1cccc2c1C(=O)c1c(O)c3c(c(O)c1C2=O)C[C@@](O)(C(=O)CO)C[C@@H]3O[C@H]1C[C@H](N)[C@H](O)[C@H](C)O1 [Doxorubicin, doxorubicin] | showed the effect of sensitizing the cancer cell lines to cell death | showed the effect of sensitizing the cancer cell line to cell line | significantly increased compared to that of the control group | killed depending on the concentration | cell viability (HT-29 cells; [10]): the cell viability decreased depending on the concentration; cell viability (HT-29 cells; [11]): the cell viability significantly increased compared to that of the control group
8 | COc1cc([C@@H]2c3cc4c(cc3[C@@H](O[C@@H]3O[C@@H]5CO[C@@H](C)O[C@H]5[C@H](O)[C@H]3O)[C@H]3COC(=O)[C@H]23)OCO4)cc(OC)c1O [Etoposide, etoposide] | showed the effect of sensitizing the cancer cell lines to cell death | showed the effect of sensitizing the cancer cell line to cell line | significantly increased compared to that of the control group | killed depending on the concentration | cell viability (HT-29 cells; [10]): the cell viability decreased depending on the concentration; cell viability (HT-29 cells; [11]): the cell viability significantly increased compared to that of the control group
9 | O=C(O)C(Cc1c[nH]c2ccccc12)N1C(=O)c2ccccc2C1=O (stereo not shown) [RG108] |  |  |  |  | RIP3 expression [7]: RIP3 expression was induced
